Measurements taken from patent publication US20220401385A1, “Combination Therapy Based on PD-1 Signaling Inhibitors” (Kyoto University, priority 2019, published 2022).

System: MC38 cells
Assay: MC38 mouse therapy model, tumor growth and survival
Format: in vivo, C57BL/6 mice
Experimental: FIG. 1-1 a) CD8^+ T cells or CD3^+ T cells were isolated from mice, and 2×10^5 cells were stimulated with CD3/CD28 beads in 96-well U plates. After 24 hours and 48 hours, cells and culture supernatant were collected, followed by measurement of spermidine (SPD) concentration by mass spectrometry. […] Ten days after inoculation, PD-L1 antibody (2 mg/kg), PD-L1 antibody+SPD (2 mg/kg), or SPD alone was administered. Subsequently, PD-L1 antibody was administered 4 times at a regular interval of 5 days, and SPD was administered 8 times at a regular interval of 3 days. Tumor growth curve and survival curve are shown. c) Draining lymph nodes (DLNs) of mice were isolated 13 days after tumor inoculation, and stained with antibodies to CD8, CD44 and CD62L. The number of cells in draining lymph node (cells/DLN) in each treatment group is shown at the left side. After being gated, CD8^+ T cells were fractionated with CD44 and CD62L into P1 to P4 cell populations. Percentages and cell numbers of P1 to P4 in each treatment group are shown. d) Tumor was isolated 13 days after tumor inoculation and treated with collagenase. Percentages and numbers per mg tumor of tumor-infiltrating CD8^+ CD45.2^+ cells are shown. For statistical analysis, ANOVA was used. * p<0.05, ** p<0.01, *** p<0.001, **** p<0.0001.
FIG. 8 MC38 cells (5×10^5) were intradermally inoculated into C57BL/6 mice. Ten days after inoculation, PD-L1 antibody (2 mg/kg), PD-L1 antibody+SPD (2 mg/kg) or PD-L1 antibody+SPM (6 mg/kg) was administered. Subsequently, […] was administered 4 times at a regular interval of 5 days, whereas SPD and SPM were administered 8 times at a regular interval of 3 days. Tumor growth curve is shown.
MC38 cells (5×10^5) were intradermally injected on the right flank. Ten days after inoculation, PD-L1 antibody (1-111A; prepared by and stored at the Department of Immunology and Genomic Medicine, Graduate School of Medicine, Kyoto University) (Immunology Letters 84 (2002) 57-62) (2 mg/kg), PD-L1 antibody+SPD (2 mg/kg) or SPD alone was administered to mice. Subsequently, PD-L1 antibody was administered 4 times at a regular interval of 5 days, and SPD was administered 8 times at a regular interval of 3 days. Tumors were measured on every alternate day, and tumor volumes were calculated using the formula for typical ellipsoid, π×(length×breadth×height/6).

NCCCNCCCCNCCCN [SPM, spermine]
effectiveness compared with SPD in enhancing the antitumor effect of PD-1 inhibitory antibody (SPM 6 mg/kg versus SPD 2 mg/kg, each + PD-L1 antibody, MC38): slightly less effective than SPD
enhancement of the antitumor effect of PD-1 inhibitory antibody (SPM (6 mg/kg) + PD-L1 antibody (2 mg/kg), MC38 in C57BL/6 mice): induced to some extent an enhancement
